Molecules are shown by their SMILES. Active and inactive are the calls of the source.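 The calls were made as follows: active = compounds whose weighted score, built from EC50 under 10 micromolar and fitted span over a set limit, tops 52; inactive = the rest.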

Sequence of Broad substrate specificity ATP-binding cassette transporter ABCG2 (Homo sapiens) (Q9UNQ0 whole entry, looked up): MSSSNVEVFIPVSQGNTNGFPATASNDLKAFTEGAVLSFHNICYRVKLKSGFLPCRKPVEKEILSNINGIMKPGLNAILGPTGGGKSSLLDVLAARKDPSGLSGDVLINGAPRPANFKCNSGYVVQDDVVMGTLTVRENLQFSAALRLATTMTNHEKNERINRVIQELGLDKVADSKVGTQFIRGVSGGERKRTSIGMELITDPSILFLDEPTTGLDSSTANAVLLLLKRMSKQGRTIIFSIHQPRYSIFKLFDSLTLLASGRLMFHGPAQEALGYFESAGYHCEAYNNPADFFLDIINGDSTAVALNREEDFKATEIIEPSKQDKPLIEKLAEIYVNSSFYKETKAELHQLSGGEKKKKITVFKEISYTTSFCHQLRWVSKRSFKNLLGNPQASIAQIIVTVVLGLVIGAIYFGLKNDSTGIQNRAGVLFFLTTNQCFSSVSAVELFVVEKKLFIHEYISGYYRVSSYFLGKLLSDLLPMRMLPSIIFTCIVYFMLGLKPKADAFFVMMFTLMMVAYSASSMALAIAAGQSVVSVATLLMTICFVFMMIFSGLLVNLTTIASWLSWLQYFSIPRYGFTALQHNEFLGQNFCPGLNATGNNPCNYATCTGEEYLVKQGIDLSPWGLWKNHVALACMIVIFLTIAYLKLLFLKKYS

The experiment concerns the target Broad substrate specificity ATP-binding cassette transporter ABCG2 (Homo sapiens) (UniProt Q9UNQ0). Briefly: ABCG2 efflux pump inhibitors, dose response, Ig-MXP3 cells, JC-1 substrate, flow cytometry (AID 489003). The settings on record: JC-1 efflux. (In flow cytometry, cells or beads pass a laser one at a time.)
On to `c1ccc(CN2CCN(c3cc(-c4ccco4)nc4cc(-c5ccccc5)nn34)CC2)cc1`, for which the EC50 is 1680 nM.
On to `O=C(c1ccoc1)N1CCCN(c2cc(-c3ccco3)nc3cc(-c4ccccc4)nn23)C1`, for which the EC50 was 1220 nM.
The result for `Cc1coc(C)c1C(=O)N1CCN(c2cc(-c3ccco3)nc3cc(-c4ccccc4)nn23)CC1` reads 3220 nM; that for `O=C(c1ccoc1)N1CCN(c2cc(-c3ccco3)nc3cc(-c4ccccc4)nn23)CC1`, 460 nM.
The same measure for `COc1ccc(-c2cc3nc(-c4ccccc4)cc(N4CCN(C(=O)c5ccoc5)CC4)n3n2)cc1`: 1620 nM; for `O=C(c1ccoc1)N1CCN(c2cc(-c3ccco3)nc3cc(-c4cccs4)nn23)CC1`: 2480 nM; for `COc1cccc(-c2cc3nc(-c4ccco4)cc(N4CCN(C(=O)c5ccoc5)CC4)n3n2)c1`: 1860 nM.
The same measure for `CC(C)(C)c1cc(N2CCN(C(=O)c3ccoc3)CC2)n2nc(-c3ccccc3)cc2n1`: “inactive”.
Consider `CN(C)c1cc(-c2ccco2)nc2cc(-c3ccccc3)nn12`, for which the EC50 was 8870 nM.
As to `Cc1nn2c(N3CCN(C(=O)c4ccco4)CC3)cc(C(C)(C)C)nc2c1-c1ccc(Cl)cc1`, the EC50 is 1920 nM.
Take `Cc1cc(N2CCN(C(=O)c3ccco3)CC2)n2nc(-c3ccccc3)nc2n1`: the EC50 was 9430 nM.
As for `CN(CCN(C)c1cc(-c2ccco2)nc2cc(-c3ccccc3)nn12)C(=O)c1ccoc1`, the EC50 result was “inactive”.
As to `Cc1nc2cc(-c3ccc4c(c3)OCO4)nn2c(N2CCN(C(=O)c3ccoc3)CC2)c1C`, the EC50 was 613 nM.
Take `O=C(c1ccco1)N1CCN(c2c3c(nc4cc(-c5ccc(F)cc5)nn24)CCC3)CC1`: the EC50 is 701 nM.
The same measure for `Cc1cc(N2CCN(C(=O)c3ccoc3)CC2)n2nc(-c3ccccc3)cc2n1`: 7190 nM.
With `CNCCCN(C)c1cc(-c2ccco2)nc2cc(-c3ccccc3)nn12`, the EC50 result was “inactive”.
For `Cc1cc(C(=O)N2CCN(c3cc(-c4ccco4)nc4cc(-c5ccccc5)nn34)CC2)c(C)o1`, the 50% effective concentration (EC50) is 3810 nM.
On to `O=C(c1ccccc1)N1CCN(c2cc(-c3ccco3)nc3cc(-c4ccccc4)nn23)CC1`, for which the EC50 is 1510 nM.
With `O=C(c1ccoc1)N1CCN(c2cc(-c3ccccc3F)nc3cc(-c4ccccc4)nn23)CC1`, the EC50 was 3620 nM.
Regarding `COc1ccc(-c2[nH]nc3nc(N4CCN(C(=O)c5ccoc5)CC4)cc(C(F)(F)F)c23)cc1`, the 50% effective concentration (EC50) was 8440 nM.
The result for `COc1cccc(-c2cc3nc(C)cc(N4CCN(C(=O)c5ccoc5)CC4)n3n2)c1` reads 4570 nM; that for `CCc1c(C)nc2cc(-c3cccc(OC)c3)nn2c1N1CCN(C(=O)c2ccoc2)CC1`, 1450 nM; that for `Cc1c(-c2ccco2)nc2cc(-c3ccccc3)nn2c1N1CCN(C(=O)c2ccoc2)CC1`, 2440 nM.
In the case of `COc1ccc(-c2cc3nc(-c4ccco4)cc(N4CCN(C(=O)c5ccoc5)CC4)n3n2)cc1`, the EC50 is 1800 nM.

As a reminder, the EC50 is the midpoint of the concentration-response curve.

The record behind these values is PubChem BioAssay AID489003 (NMMLSC, 2010).
